Measured values taken from patent US20240342133A1, “TOPICAL STATIN FORMULATION FOR TREATMENT OF LICHEN SCLEROSUS AND PSORIASIS” (TBT PHARMA, INC, priority 2023, published 2024).

Assays:
cortisol = assay: Cortisol levels in primary human keratinocyte cultures and organotype wound healing models; format: cell-based; details: after treatment
Excerpt: FIG. 4. Cortisol levels in organotype wound models after treatment with mevastatin. […] Without cholesterol, local cortisol production should drop because cholesterol is required for cortisol synthesis. This was confirmed in primary human keratinocyte cultures and organotype wound healing models after treatment with mevastatin.

c-myc = c-myc expression in human skin ex-vivo (chronic wound) cultures and organotype wound models; format: cell-based; details: samples from chronic wounds, cultured, before and after treatment; relatively short time frame
Excerpt: FIG. 3. C-myc expression in ex-vivo cultures before and after treatment with mevastatin. […] Samples are directly from chronic wounds, cultured, and measured c-myc levels before and after treatment with mevastatin. […] A large effect of high c-myc levels is that they cause abnormal differentiation and migration of keratinocytes.

[1] = system: Primary human keratinocytes; assay: Keratinocyte migration scratch test; format: cell-based; details: varying doses
chronic wounds = assay: Full thickness diabetic porcine wound model; format: in vivo; details: for increase in wound vascularity (% vascularity): versus vehicle, day 10, PD31 stain
Protocol: FIG. 6. Histology sections of optimal dose at day 10 show increased epithelialization and vascularization. FIG. 7. Percent vascularity at day 10 determined by PD31 stain. […] Mevastatin, simvastatin, and a combination were tested in a full thickness diabetic porcine model. FIG. 6 confirms that statins are an effective treatment of chronic wounds with a known mechanism of action. The compounds show increased epithelialization and vascularization.

MRSA = MRSA load in ex-vivo wound cultures; parameters: species or system methicillin resistant staph aureus; details: after 24 hours
[2] = full thickness diabetic porcine model, day 10

Structure (SMILES) | local cortisol production (cortisol) | c-myc levels (c-myc) | keratinocyte migration [1] | epithelialization (chronic wounds; [2]) | vascularization (chronic wounds; [2]) | increase in wound vascularity (% vascularity) (chronic wounds) [fold] | MRSA load (MRSA)
CC[C@H](C)C(=O)O[C@H]1CCC=C2C=C[C@H](C)[C@H](CC[C@@H]3C[C@@H](O)CC(=O)O3)[C@H]21 [mevastatin] | drop | drop drastically | increasing migration levels with dose | increased | increased | ~3 | drastic reduction
CCC(C)(C)C(=O)O[C@H]1C[C@@H](C)C=C2C=C[C@H](C)[C@H](CC[C@@H]3C[C@@H](O)CC(=O)O3)[C@H]21 [simvastatin] |  |  |  |  |  | ~3 | 
